Laboratory results: article PMC9143880, “Improving Antimicrobial Activity and Physico-Chemical Properties by Isosteric Replacement of 2-Aminothiazole with 2-Aminooxazole” (Pharmaceuticals, 2022)
Converted amounts (≈) assume the structure as drawn. Like-named read-outs stand apart in the source and are kept apart here.

Experiments:
[1] = test system: M. smegmatis DSM 43465 (ATCC 607); assay: Antimycobacterial MIC, microdilution broth / resazurin; format: cell-based; conditions: Mycolicibacterium smegmatis; resazurin after 48 h; read-out: MIC M. smegmatis
[2] = test system: M. kansasii DSM 44162 (ATCC 12478); assay: as above; format: cell-based; conditions: Mycobacterium kansasii, read-out: MIC M. kansasii
[3] = test system: Mycobacterium tuberculosis H37Ra ITM-M006710 (ATCC 9431); assay: Antimycobacterial MIC, microdilution broth / Alamar Blue (resazurin); format: cell-based; conditions: Mycobacterium tuberculosis
[4] = test system: M. aurum DSM 43999 (ATCC 23366); assay: Antimycobacterial MIC, microdilution broth / resazurin; format: cell-based; conditions: Mycolicibacterium aurum; resazurin after 72 h; read-out: MIC M. aurum
[5] = test system: Mtb H37Rv CNCTC My 331/88 (ATCC 27294); assay: microbe, parasite or virus in culture; format: cell-based; conditions: Mycobacterium tuberculosis, read-out: MIC Mtb H37Rv
[6] = test system: M. avium DSM 44156 (ATCC 25291); assay: Antimycobacterial MIC, microdilution broth / resazurin; format: cell-based, Mycobacterium avium; conditions: Mycobacterium avium; resazurin after 96 h; read-out: MIC M. avium
Mtb laboratory ID MATI = format: cell-based, Mycobacterium tuberculosis; conditions: MDR strain MATI, CLSI breakpoints 2021
Mtb laboratory ID IZAK = format: cell-based, Mycobacterium tuberculosis; conditions: MDR strain IZAK, CLSI breakpoints 2020
[7] = test system: Acinetobacter baumannii DSM 30007 (ATCC 19606); assay: Antibacterial microdilution broth (EUCAST); format: cell-based; conditions: Acinetobacter baumannii; 24h incubation; read-out: MIC AB
[8] = test system: Staphylococcus aureus subsp. aureus (MRSA) CCM 4750 (ATCC 43300); assay: Antibacterial microdilution broth (EUCAST); format: cell-based; conditions: Staphylococcus aureus; 24h incubation; read-out: MIC MRSA
[9] = test system: Candida tropicalis CCM 8264 (ATCC 750); assay: Antifungal microdilution broth (EUCAST); conditions: Candida tropicalis, 24 h, read-out: MIC CT
[10] = test system: Candida parapsilosis CCM 8260 (ATCC 22019); assay: Antifungal microdilution broth (EUCAST); conditions: Lodderomyces parapsilosis, 24 h, read-out: MIC CP
[11] = test system: Aspergillus flavus CCM 8363; assay: Antifungal microdilution broth (EUCAST); conditions: Aspergillus flavus, CCM8363, 24 h, read-out: MIC AFla
[12] = test system: Trichophyton interdigitale CCM 8377 (ATCC 9533); assay: Antifungal microdilution broth (EUCAST); conditions: Trichophyton interdigitale, 72 h, read-out: MIC TI
[13] = test system: Staphylococcus aureus subsp. aureus CCM 4223 (ATCC 29213); assay: Antibacterial microdilution broth (EUCAST); format: cell-based; conditions: Staphylococcus aureus; 24h incubation; read-out: MIC SA
[14] = RP-UHPLC lipophilicity parameter log k’w; format: physicochemical; conditions: for log k’w: RP-UHPLC, acetonitrile/water, log k extrapolated to 0% acetonitrile; for logkw: experimental lipophilicity parameter
In short: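 Retention was measured once per eluent composition: subtype I at 40/45/50% and subtype II at 20/30/40% acetonitrile in water, isocratic RP-UHPLC. log k values from these runs gave the lipophilicity index log k’w.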

[15] = test system: Candida krusei CCM 8271 (ATCC 6258); assay: Antifungal microdilution broth (EUCAST); conditions: Pichia kudriavzevii, 24 h, read-out: MIC CK
[16] = test system: Aspergillus fumigatus ATCC 204305; assay: Antifungal microdilution broth (EUCAST); conditions: Aspergillus fumigatus, ATCC204305, 24 h, read-out: MIC AF
[17] = test system: Pseudomonas aeruginosa CCM 3955 (ATCC 27853); assay: Antibacterial microdilution broth (EUCAST); format: cell-based; conditions: Pseudomonas aeruginosa; 72h incubation; read-out: MIC PA
[18] = test system: Mtb MATI (MDR clinical isolate); assay: microbe, parasite or virus in culture; format: cell-based; conditions: Mycobacterium tuberculosis, read-out: MIC Mtb MATI
[19] = test system: Mtb IZAK (MDR clinical isolate); assay: microbe, parasite or virus in culture; format: cell-based; conditions: Mycobacterium tuberculosis, read-out: MIC Mtb IZAK
[20] = test system: Lichtheimia corymbifera CCM 8077; assay: Antifungal microdilution broth (EUCAST); conditions: Lichtheimia corymbifera, CCM8077, 24 h, read-out: MIC LC
HepG2 cells = assay: HepG2 cytotoxicity screening (CellTiter 96); format: cell-based, human; conditions: for IC50: Homo sapiens, HepG2, 24 h, 24 h incubation, CellTiter 96, * above highest tested concentration, ** limited by insolubility in medium; for SI: SI = IC50 (µM) HepG2 / MICH37Ra (µM)
[21] = test system: Enterococcus faecalis CCM 4224 (ATCC 29212); assay: Antibacterial microdilution broth (EUCAST); format: cell-based; conditions: Enterococcus faecalis; 24h incubation; read-out: MIC EF
[22] = test system: Candida albicans CCM 8320 (ATCC 24433); assay: Antifungal microdilution broth (EUCAST); conditions: Candida albicans, 24 h, read-out: MIC CA
[23] = test system: Staphylococcus epidermidis CCM 4418 (ATCC 12228); assay: Antibacterial microdilution broth (EUCAST); format: cell-based; conditions: Staphylococcus epidermidis; 24h incubation; read-out: MIC SE
[24] = test system: Escherichia coli CCM 3954 (ATCC 25922); assay: Antibacterial microdilution broth (EUCAST); format: cell-based; conditions: Escherichia coli; 24h incubation; read-out: MIC EC
[25] = Kinetic water solubility (water-induced precipitation of DMSO stock, UHPLC); format: physicochemical; conditions: water (DMSO stock diluted with water), 18 °C, kinetic from dmso stock
From the text: A low value of log P is often presumed to be related to increased water solubility, although this might not always be the case since log P is a measure of relative solubility of the compound in the lipophilic and hydrophilic solvents (at equilibrium). Therefore, to be sure, we tested whether the lowered log k’w (related to log P) of the oxazole derivatives would also translate to increased solubility in water in a few representative derivatives. The water solubility of selected compounds was assessed by the kinetic method based on water-induced precipitation of DMSO stock solutions of tested compounds due to reasons described by Azzali and colleagues.
Water solubility was investigated using the kinetic solubility method. The sample (1 mg) was dissolved in the smallest amount of DMSO needed, 25 or 50 μL for subtype I and subtype II compounds, respectively. The samples were mixed at 18 °C in a thermomixer (Thermomixer comfort, Eppendorf, Hamburg, Germany) for 1 h. After mixing, the samples were diluted with water to a concentration of 500 μM, and the precipitate was observed. The sample was filtered through a 0.22 μm filter and diluted to be evaluated by UHPLC. The log S parameter was calculated from the experimental solubility in molar concentration. The samples were measured using the same instrument, software, and column as used in the purity evaluation.

[26] = 120 h, Middlebrook 7H9, resazurin after 120 h, read-out: Mtb H37Ra MIC
[27] = recalculated from µg/mL, read-out: MICH37Ra

Row | SMILES | MIC [1] | MIC ([2]; resazurin after 96 h) | MIC [3, 26] | MIC [4] | MIC [5] | MIC [6] | Concentration (susceptibility profile) (Mtb laboratory ID MATI) | Susceptibility (Mtb laboratory ID MATI) | Concentration (susceptibility profile) (Mtb laboratory ID IZAK) | Susceptibility (Mtb laboratory ID IZAK) | MIC [7] | MIC [8] | MIC [9] | MIC [10] | MIC [3, 27] | MIC [11] | MIC [12] | MIC [13] | log k’w [14] | logkw [14] | further results
1 | O=C(O)c1cn(C2CC2)c2cc(N3CCNCC3)c(F)cc2c1=O [CIP, ciprofloxacin, reference compound] | 0.125 µg/mL (≈ 0.377 µM) | 0.25 µg/mL (≈ 0.754 µM) | 0.25 µg/mL | 0.0156 µg/mL (≈ 0.0472 µM) | 0.2 µg/mL (≈ 0.604 µM) | 0.25 to 0.5 µg/mL (≈ 0.754 to 1.51 µM) |  |  |  |  |  |  |  |  |  |  |  |  |  |  | 
2 | [H]/N=C(/N)N[C@H]1[C@H](O)[C@@H](O)[C@H](O[C@@H]2O[C@@H](C)[C@](O)(C=O)[C@H]2O[C@@H]2O[C@@H](CO)[C@H](O)[C@@H](O)[C@@H]2NC)[C@@H](N/C(N)=N\[H])[C@@H]1O [STM, streptomycin] |  |  |  |  |  |  | > 16 µg/mL | resistant | 4 µg/mL | resistant |  |  |  |  |  |  |  |  |  |  | 
3 | NC(=O)c1cnccn1 [PZA, pyrazinamide] |  |  |  |  |  |  | > 128 µg/mL | resistant | > 16 µg/mL | resistant |  |  |  |  |  |  |  |  |  |  | 
4 | Cc1cc(C(=O)Nc2ncco2)cc(Cl)n1 [Compound 7b] | 7.81 µg/mL (≈ 32.9 µM) | 7.81 µg/mL (≈ 32.9 µM) | < 3.91 µg/mL | 3.91 µg/mL (≈ 16.5 µM) | 6.25 µg/mL (≈ 26.3 µM) | 3.91 µg/mL (≈ 16.5 µM) |  |  |  |  | 500 µM (≈ 119 µg/mL) | 125 µM (≈ 29.7 µg/mL) | > 500 µM | 500 µM (≈ 119 µg/mL) | < 16.5 µM | > 500 µM | 125 µM (≈ 29.7 µg/mL) | 62.5 µM (≈ 14.9 µg/mL) | 1.430 | 1.43 | MIC [15]: 500 µM (≈ 119 µg/mL); MIC [16]: 250 µM (≈ 59.4 µg/mL); MIC [17]: > 500 µM; MIC [18]: 3.13 µg/mL (≈ 13.2 µM); MIC [19]: 3.13 µg/mL (≈ 13.2 µM); MIC [20]: 125 µM (≈ 29.7 µg/mL); IC50 (HepG2 cells): 959 µM; SI (HepG2 cells): >58.3; melting point: 149 to 153 °C; MIC [21]: 500 µM (≈ 119 µg/mL); MIC [22]: 125 µM (≈ 29.7 µg/mL); MIC [23]: 125 µM (≈ 29.7 µg/mL); MIC [24]: 250 µM (≈ 59.4 µg/mL)
5 | O=C(Nc1nc(-c2ccccc2)cs1)c1ccnc(Cl)c1 [Compound 15a] | 15.6 µg/mL (≈ 49.5 µM) |  | 3.91 µg/mL | 31.2 µg/mL (≈ 99 µM) |  | 15.6 µg/mL (≈ 49.5 µM) |  |  |  |  | > 500 µM | > 500 µM | > 125 µM | > 125 µM | 12.4 µM | > 125 µM | > 125 µM | > 500 µM | 3.036 | 3.036 | MIC ([2]; 96 h): < 3.91 µg/mL; MIC [15]: > 125 µM; solubility ([25]; calculated from experimentally measured water solubility in molar concentration, read-out: Exp. log S (converted)): 6.61 µM; solubility ([25]; water, kinetic method, DMSO stock diluted to 500 μM, read-out: Solubility): 2.1 µg/mL; MIC [16]: > 125 µM; MIC [17]: > 500 µM; MIC [20]: > 125 µM; IC50 (HepG2 cells): 103 µM; SI (HepG2 cells): 8.3; melting point: 158 to 162 °C; MIC [21]: > 500 µM; MIC [22]: > 125 µM; MIC [23]: > 500 µM; MIC [24]: > 500 µM
6 | CO[C@H]1/C=C/O[C@@]2(C)Oc3c(C)c(O)c4c(O)c(c(/C=N/N5CCN(C)CC5)c(O)c4c3C2=O)NC(=O)/C(C)=C\C=C\[C@H](C)[C@H](O)[C@@H](C)[C@@H](O)[C@@H](C)[C@H](OC(C)=O)[C@@H]1C [RIF, rifampicin] | 12.5 µg/mL (≈ 15.2 µM) | 0.025 µg/mL (≈ 0.0304 µM) |  | 0.39 µg/mL (≈ 0.474 µM) |  |  | > 8 µg/mL | resistant | > 8 µg/mL | resistant |  |  |  |  |  |  |  |  |  |  | 
